Assay results as given in ChEMBL document CHEMBL3421558, “Structure activity relationship of substituted 1,5-naphthyridine analogs of oxabicyclooctane-linked novel bacterial topoisomerase inhibitors as broad-spectrum antibacterial agents (Part-4)” (Bioorg Med Chem Lett, 2015).
≈ marks a conversion by molar mass, not a printed value.

Test system: Staphylococcus aureus
Experiment: Antimicrobial activity against Staphylococcus aureus Smith by micro broth dilution or agar based method
Format: functional
Conditions: Staphylococcus aureus, Smith; read-out: MIC

Going from `O=C1COc2ccc(CNC34CCC(CCc5ccnc6cc(Cl)cnc56)(CC3)OC4)nc2N1` to `O=C1COc2ccc(CNC34CCC(CCc5ccnc6ccc(C(F)(F)F)nc56)(CC3)OC4)nc2N1`, the MIC falls from 64 µg/mL (≈ 133 µM) to 2 µg/mL (≈ 3.89 µM) (32-fold).

Going from `Cc1ccc2ncc(F)c(CCC34CCC(NCc5ccc6c(n5)NC(=O)CO6)(CC3)CO4)c2n1` to `O=C1COc2ccc(CNC34CCC(CCc5c(F)cnc6ccc(O)nc56)(CC3)OC4)nc2N1`, the MIC rises from 0.25 µg/mL (≈ 0.524 µM) to 0.5 µg/mL (≈ 1.04 µM) (2-fold).

First: COc1cc2nccc(CCC34CCC(NCc5ccc6c(n5)NC(=O)CO6)(CC3)CO4)c2nc1C(=O)O
Second: COc1cc(C)c2nccc(CCC34CCC(NCc5ccc6c(n5)NC(=O)CO6)(CC3)CO4)c2n1
The MIC of the first is 130-fold higher: 16 µg/mL (≈ 30.8 µM) for the first, 0.125 µg/mL (≈ 0.255 µM) for the second.

First: CN(C)c1ccc2ncc(F)c(CCC34CCC(NCc5ccc6c(n5)NC(=O)CO6)(CC3)CO4)c2n1
Second: COc1ccc2ncc(O)c(CCC34CCC(NCc5ccc6c(n5)NC(=O)CO6)(CC3)CO4)c2n1
The MIC of the first is 8.1-fold higher: 0.25 µg/mL (≈ 0.494 µM) for the first, 0.031 µg/mL (≈ 0.0631 µM) for the second.

In the case of `COc1cc2ncc(F)c(CCC34CCC(NCc5ccc6c(n5)NC(=O)CO6)(CC3)CO4)c2nc1OC`, the MIC is reported as 0.5 µg/mL (≈ 0.955 µM).

Test system: Pseudomonas aeruginosa
Experiment: Antimicrobial activity against Pseudomonas aeruginosa PAO1 by micro broth dilution or agar based method
Format: functional
Conditions: Pseudomonas aeruginosa, PAO1; read-out: MIC

`O=C1COc2ccc(CNC34CCC(CCc5ccnc6cc(Cl)cnc56)(CC3)OC4)nc2N1` and `O=C1COc2ccc(CNC34CCC(CCc5ccnc6ccc(C(F)(F)F)nc56)(CC3)OC4)nc2N1` are the same in MIC: 64 µg/mL (≈ 133 µM) for the first, 64 µg/mL (≈ 125 µM) for the second.

First: Cc1ccc2ncc(F)c(CCC34CCC(NCc5ccc6c(n5)NC(=O)CO6)(CC3)CO4)c2n1
Second: O=C1COc2ccc(CNC34CCC(CCc5c(F)cnc6ccc(O)nc56)(CC3)OC4)nc2N1
The MIC of the first is 2-fold lower: 16 µg/mL (≈ 33.5 µM) for the first, 32 µg/mL (≈ 66.7 µM) for the second.

First: COc1cc2nccc(CCC34CCC(NCc5ccc6c(n5)NC(=O)CO6)(CC3)CO4)c2nc1C(=O)O
Second: COc1cc(C)c2nccc(CCC34CCC(NCc5ccc6c(n5)NC(=O)CO6)(CC3)CO4)c2n1
The MIC of the first is 2-fold lower: 16 µg/mL (≈ 30.8 µM) for the first, 32 µg/mL (≈ 65.4 µM) for the second.

Compared with `CN(C)c1ccc2ncc(F)c(CCC34CCC(NCc5ccc6c(n5)NC(=O)CO6)(CC3)CO4)c2n1`, `COc1ccc2ncc(O)c(CCC34CCC(NCc5ccc6c(n5)NC(=O)CO6)(CC3)CO4)c2n1` is 2-fold higher in MIC: 8 µg/mL (≈ 15.8 µM) for the first, 16 µg/mL (≈ 32.6 µM) for the second.

`COc1cc2ncc(F)c(CCC34CCC(NCc5ccc6c(n5)NC(=O)CO6)(CC3)CO4)c2nc1OC` gave an MIC of 8 µg/mL (≈ 15.3 µM).

Test system: Staphylococcus aureus
Experiment: Antimicrobial activity against methicillin-resistant Staphylococcus aureus OIT971 by micro broth dilution or agar based method
Format: functional
Conditions: not given

First: O=C1COc2ccc(CNC34CCC(CCc5ccnc6cc(Cl)cnc56)(CC3)OC4)nc2N1
Second: O=C1COc2ccc(CNC34CCC(CCc5ccnc6ccc(C(F)(F)F)nc56)(CC3)OC4)nc2N1
The MIC of the first is 16-fold higher: 16 µg/mL (≈ 33.3 µM) for the first, 1 µg/mL (≈ 1.95 µM) for the second.

First: Cc1ccc2ncc(F)c(CCC34CCC(NCc5ccc6c(n5)NC(=O)CO6)(CC3)CO4)c2n1
Second: O=C1COc2ccc(CNC34CCC(CCc5c(F)cnc6ccc(O)nc56)(CC3)OC4)nc2N1
The MIC of the first is 2-fold lower: 0.125 µg/mL (≈ 0.262 µM) for the first, 0.25 µg/mL (≈ 0.521 µM) for the second.

Going from `COc1cc2nccc(CCC34CCC(NCc5ccc6c(n5)NC(=O)CO6)(CC3)CO4)c2nc1C(=O)O` to `COc1cc(C)c2nccc(CCC34CCC(NCc5ccc6c(n5)NC(=O)CO6)(CC3)CO4)c2n1`, the MIC falls from 16 µg/mL (≈ 30.8 µM) to 0.063 µg/mL (≈ 0.129 µM) (250-fold).

Going from `CN(C)c1ccc2ncc(F)c(CCC34CCC(NCc5ccc6c(n5)NC(=O)CO6)(CC3)CO4)c2n1` to `COc1ccc2ncc(O)c(CCC34CCC(NCc5ccc6c(n5)NC(=O)CO6)(CC3)CO4)c2n1`, the MIC falls from 0.25 µg/mL (≈ 0.494 µM) to 0.031 µg/mL (≈ 0.0631 µM) (8.1-fold).

`COc1cc2ncc(F)c(CCC34CCC(NCc5ccc6c(n5)NC(=O)CO6)(CC3)CO4)c2nc1OC` showed an MIC of 0.25 µg/mL (≈ 0.477 µM).

Test system: Enterococcus faecium
Experiment: Antimicrobial activity against VanA expressing vancomycin-resistant Enterococcus faecium by micro broth dilution or agar based method
Format: functional
Conditions: Enterococcus faecium; read-out: MIC

Going from `O=C1COc2ccc(CNC34CCC(CCc5ccnc6cc(Cl)cnc56)(CC3)OC4)nc2N1` to `O=C1COc2ccc(CNC34CCC(CCc5ccnc6ccc(C(F)(F)F)nc56)(CC3)OC4)nc2N1`, the MIC falls from 64 µg/mL (≈ 133 µM) to 16 µg/mL (≈ 31.2 µM) (4-fold).

Compared with `Cc1ccc2ncc(F)c(CCC34CCC(NCc5ccc6c(n5)NC(=O)CO6)(CC3)CO4)c2n1`, `O=C1COc2ccc(CNC34CCC(CCc5c(F)cnc6ccc(O)nc56)(CC3)OC4)nc2N1` is 2-fold higher in MIC: 4 µg/mL (≈ 8.38 µM) for the first, 8 µg/mL (≈ 16.7 µM) for the second.

Compared with `COc1cc2nccc(CCC34CCC(NCc5ccc6c(n5)NC(=O)CO6)(CC3)CO4)c2nc1C(=O)O`, `COc1cc(C)c2nccc(CCC34CCC(NCc5ccc6c(n5)NC(=O)CO6)(CC3)CO4)c2n1` is 2-fold lower in MIC: 16 µg/mL (≈ 30.8 µM) for the first, 8 µg/mL (≈ 16.3 µM) for the second.

Going from `CN(C)c1ccc2ncc(F)c(CCC34CCC(NCc5ccc6c(n5)NC(=O)CO6)(CC3)CO4)c2n1` to `COc1ccc2ncc(O)c(CCC34CCC(NCc5ccc6c(n5)NC(=O)CO6)(CC3)CO4)c2n1`, the MIC falls from 4 µg/mL (≈ 7.9 µM) to 2 µg/mL (≈ 4.07 µM) (2-fold).

For `COc1cc2ncc(F)c(CCC34CCC(NCc5ccc6c(n5)NC(=O)CO6)(CC3)CO4)c2nc1OC`, the MIC was 8 µg/mL (≈ 15.3 µM).

Test system: Escherichia coli
Experiment: Antimicrobial activity against Escherichia coli ATCC 25922 by micro broth dilution or agar based method
Format: functional
Conditions: Escherichia coli, ATCC 25922; read-out: MIC

Going from `O=C1COc2ccc(CNC34CCC(CCc5ccnc6cc(Cl)cnc56)(CC3)OC4)nc2N1` to `O=C1COc2ccc(CNC34CCC(CCc5ccnc6ccc(C(F)(F)F)nc56)(CC3)OC4)nc2N1`, the MIC falls from 64 µg/mL (≈ 133 µM) to 32 µg/mL (≈ 62.3 µM) (2-fold).

Compared with `Cc1ccc2ncc(F)c(CCC34CCC(NCc5ccc6c(n5)NC(=O)CO6)(CC3)CO4)c2n1`, `O=C1COc2ccc(CNC34CCC(CCc5c(F)cnc6ccc(O)nc56)(CC3)OC4)nc2N1` is 2-fold lower in MIC: 8 µg/mL (≈ 16.8 µM) for the first, 4 µg/mL (≈ 8.34 µM) for the second.

Going from `COc1cc2nccc(CCC34CCC(NCc5ccc6c(n5)NC(=O)CO6)(CC3)CO4)c2nc1C(=O)O` to `COc1cc(C)c2nccc(CCC34CCC(NCc5ccc6c(n5)NC(=O)CO6)(CC3)CO4)c2n1`, the MIC falls from 16 µg/mL (≈ 30.8 µM) to 8 µg/mL (≈ 16.3 µM) (2-fold).

Compared with `CN(C)c1ccc2ncc(F)c(CCC34CCC(NCc5ccc6c(n5)NC(=O)CO6)(CC3)CO4)c2n1`, `COc1ccc2ncc(O)c(CCC34CCC(NCc5ccc6c(n5)NC(=O)CO6)(CC3)CO4)c2n1` is 2-fold lower in MIC: 8 µg/mL (≈ 15.8 µM) for the first, 4 µg/mL (≈ 8.14 µM) for the second.

`COc1cc2ncc(F)c(CCC34CCC(NCc5ccc6c(n5)NC(=O)CO6)(CC3)CO4)c2nc1OC` showed an MIC of 8 µg/mL (≈ 15.3 µM).

Test system: Streptococcus pneumoniae
Experiment: Antimicrobial activity against Streptococcus pneumoniae IID553 by micro broth dilution or agar based method
Format: functional
Conditions: Streptococcus pneumoniae, IID553; read-out: MIC

First: O=C1COc2ccc(CNC34CCC(CCc5ccnc6cc(Cl)cnc56)(CC3)OC4)nc2N1
Second: O=C1COc2ccc(CNC34CCC(CCc5ccnc6ccc(C(F)(F)F)nc56)(CC3)OC4)nc2N1
The MIC of the first is 2-fold higher: 64 µg/mL (≈ 133 µM) for the first, 32 µg/mL (≈ 62.3 µM) for the second.

First: Cc1ccc2ncc(F)c(CCC34CCC(NCc5ccc6c(n5)NC(=O)CO6)(CC3)CO4)c2n1
Second: O=C1COc2ccc(CNC34CCC(CCc5c(F)cnc6ccc(O)nc56)(CC3)OC4)nc2N1
The MIC of the first is 2-fold lower: 2 µg/mL (≈ 4.19 µM) for the first, 4 µg/mL (≈ 8.34 µM) for the second.

Going from `COc1cc2nccc(CCC34CCC(NCc5ccc6c(n5)NC(=O)CO6)(CC3)CO4)c2nc1C(=O)O` to `COc1cc(C)c2nccc(CCC34CCC(NCc5ccc6c(n5)NC(=O)CO6)(CC3)CO4)c2n1`, the MIC falls from 16 µg/mL (≈ 30.8 µM) to 1 µg/mL (≈ 2.04 µM) (16-fold).

Compared with `CN(C)c1ccc2ncc(F)c(CCC34CCC(NCc5ccc6c(n5)NC(=O)CO6)(CC3)CO4)c2n1`, `COc1ccc2ncc(O)c(CCC34CCC(NCc5ccc6c(n5)NC(=O)CO6)(CC3)CO4)c2n1` is 4-fold lower in MIC: 2 µg/mL (≈ 3.95 µM) for the first, 0.5 µg/mL (≈ 1.02 µM) for the second.

`COc1cc2ncc(F)c(CCC34CCC(NCc5ccc6c(n5)NC(=O)CO6)(CC3)CO4)c2nc1OC` gave an MIC of 8 µg/mL (≈ 15.3 µM).

Test system: Acinetobacter baumannii
Experiment: Antimicrobial activity against Acinetobacter baumannii IID876 by micro broth dilution or agar based method
Format: functional
Conditions: Acinetobacter baumannii, IID876; read-out: MIC

Going from `O=C1COc2ccc(CNC34CCC(CCc5ccnc6cc(Cl)cnc56)(CC3)OC4)nc2N1` to `O=C1COc2ccc(CNC34CCC(CCc5ccnc6ccc(C(F)(F)F)nc56)(CC3)OC4)nc2N1`, the MIC falls from 64 µg/mL (≈ 133 µM) to 8 µg/mL (≈ 15.6 µM) (8-fold).

`Cc1ccc2ncc(F)c(CCC34CCC(NCc5ccc6c(n5)NC(=O)CO6)(CC3)CO4)c2n1` and `O=C1COc2ccc(CNC34CCC(CCc5c(F)cnc6ccc(O)nc56)(CC3)OC4)nc2N1` are the same in MIC: 2 µg/mL (≈ 4.19 µM) for the first, 2 µg/mL (≈ 4.17 µM) for the second.

Going from `COc1cc2nccc(CCC34CCC(NCc5ccc6c(n5)NC(=O)CO6)(CC3)CO4)c2nc1C(=O)O` to `COc1cc(C)c2nccc(CCC34CCC(NCc5ccc6c(n5)NC(=O)CO6)(CC3)CO4)c2n1`, the MIC falls from 16 µg/mL (≈ 30.8 µM) to 8 µg/mL (≈ 16.3 µM) (2-fold).

First: CN(C)c1ccc2ncc(F)c(CCC34CCC(NCc5ccc6c(n5)NC(=O)CO6)(CC3)CO4)c2n1
Second: COc1ccc2ncc(O)c(CCC34CCC(NCc5ccc6c(n5)NC(=O)CO6)(CC3)CO4)c2n1
The MIC of the first is 4-fold higher: 8 µg/mL (≈ 15.8 µM) for the first, 2 µg/mL (≈ 4.07 µM) for the second.

In the case of `COc1cc2ncc(F)c(CCC34CCC(NCc5ccc6c(n5)NC(=O)CO6)(CC3)CO4)c2nc1OC`, the MIC is reported as 8 µg/mL (≈ 15.3 µM).
